Measured values published in PMC12749166, “Fragment-based drug design of a bacterial kinase inhibitor capable of increasing the antibiotic sensitivity of clinical isolates” (Communications Chemistry, 2025).
≈ marks a conversion by molar mass, not a printed value. Where two headings read alike, the source gives them in different places.

Tests used:
APH(2”)-IVa [1] = molecular target: T1, APH(2”)-IVa (Enterococcus casseliflavus, UniProt O68183)
APH(2”)-IVa [2] = tested on: APH(2”)-IVa; parameters: method as in PMID 19158087; details: read-out: Michaelis constant (Km) for ATP; cited from earlier work
APH(3’)-IIb = tested on: APH(3’)-IIb; parameters: method as in earlier work; details: read-out: Michaelis constant (Km) for ATP; cited from earlier work
APH(3’)-IIa = details: read-out: Michaelis constant (Km) for ATP; cited from earlier work
[3] = tested on: P. aeruginosa clinical isolates; assay: MIC by broth micro-dilution; format: cell-based
S. aureus C0032 [4] = assay: MIC by broth micro-dilution; format: cell-based; details: S. aureus C0032, aph(3')-IIIa ant(6)
P. aeruginosa C0307 = assay: Checkerboard assay of 83 with kanamycin A; format: cell-based; details: for MIC of kanamycin A: [83] 0 µg mL^−1, 18 h at 37 °C; for checkerboard well reading (growth): 83 0 µg.mL-1
S. aureus C0032 [5] = assay: Checkerboard assay of 83 with kanamycin A; format: cell-based; details: for checkerboard well reading (growth): Supp. Figure 3 C, 83 0 µg.mL-1
APH(3’)-IIIa = molecular target: APH(3’)-IIIa; parameters: method as in PMID 21573013, PMID 15388945; details: read-out: Inhibition constant; cited from earlier work
APH(9)-Ia = molecular target: APH(9)-Ia; parameters: method as in PMID 21573013, PMID 15388945; details: read-out: Inhibition constant; cited from earlier work
APH(3’)-Ia = molecular target: APH(3’)-Ia; parameters: method as in PMID 23758273; details: read-out: Inhibition constant; cited from earlier work
[6] = tested on: resistant hyper-permeable efflux mutant of E. coli (ΔtolC ΔbamB); details: cited from earlier work
APH(2”)-IVa [7] = molecular target: T1, APH(2”)-IVa; assay: biochemical; format: binding; details: read-out: ΔTm (°C)
Procedure: Thermal shift assays were performed using an RTqPCR machine Mx3005P (Stratagene) in 96-well plates (Thermo-Fast low Profile, ThermoScientific) by mixing the protein at 5 µM, SYPRO® Orange (Sigma Aldrich) at […], and fragments at 500 µM. Fluorescence was followed with Cy3 and SYAL filters. Denaturation curves were collected using MxPro-Mx3005P v4.10 software and analyzed using the implemented version of wTSA-CRAFT[36].

APH(2”)-IVa [8] = molecular target: T1, APH(2”)-IVa; assay: biochemical; details: Ki (µM), inhibition constant, ATP-competitive; 0-2 mM MgATP, 100 µM kanamycin A, global fitting
APH(2”)-IVa [9] = molecular target: T1, APH(2”)-IVa; assay: biochemical; format: binding
Procedure: ITC experiments were performed on three different machines: a MicroCal VP-ITC (GE Healthcare), a MicroCal PEAQ-ITC (Malvern), or a MicroCal iTC200 (Malvern). The architecture and principles are similar for the three different systems. The experiments were carried out in Buffer HEPES at 25 °C. Titrations consisted of twenty injections of 1.5 µL inhibitors, every 120 seconds, into the measuring cell using the injection syringe rotating at 750 rpm. The data were analyzed using the MicroCal PEAQ-ITC software (v. 1.52, Malvern) using the single-site binding model to fit the raw data. The standard error of the Kd value was determined from measurements made on distinct samples (n indicated in the text).

[10] = Pseudomonas aeruginosa, P. aeruginosa C0214, aph(3')-IIb, read-out: MIC
[11] = Pseudomonas aeruginosa, P. aeruginosa C0307, aph(3')-IIb, read-out: MIC
[12] = Staphylococcus aureus, read-out: MIC

T1 sequence (O68183 1-301): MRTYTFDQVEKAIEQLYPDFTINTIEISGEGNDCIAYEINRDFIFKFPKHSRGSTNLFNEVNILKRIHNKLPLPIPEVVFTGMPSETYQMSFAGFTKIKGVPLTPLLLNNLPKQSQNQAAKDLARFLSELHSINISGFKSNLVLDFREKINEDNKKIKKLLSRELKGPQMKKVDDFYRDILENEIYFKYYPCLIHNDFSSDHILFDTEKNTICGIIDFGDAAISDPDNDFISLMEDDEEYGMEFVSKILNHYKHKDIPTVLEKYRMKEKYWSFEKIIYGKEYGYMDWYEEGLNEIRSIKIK

Nc1ccc(Cl)cn1 [Compound F69]
Inhibition relative to F68 (APH(2”)-IVa [1]; 500 µM, times more inhibition than F68): 6.2 times

Nc1ncnc2c1ncn2[C@@H]1O[C@H](COP(=O)(O)OP(=O)(O)OP(=O)(O)O)[C@@H](O)[C@H]1O [ATP, adenosine 5’-triphosphate]
Km (APH(2”)-IVa [2]): 101 µM
Km (APH(3’)-IIb): 24 µM
Km (APH(3’)-IIa): 45 µM

[H]/N=C(/N)N[C@H]1[C@H](O)[C@@H](O)[C@H](O[C@@H]2O[C@@H](C)[C@](O)(C=O)[C@H]2O[C@@H]2O[C@@H](CO)[C@H](O)[C@@H](O)[C@@H]2NC)[C@@H](N/C(N)=N\[H])[C@@H]1O [Streptomycin]
MIC [3, 10]: 32 µg/mL (≈ 55 µM)
MIC [3, 11]: 64 µg/mL (≈ 110 µM)
MIC (S. aureus C0032 [4]; [12]): 2 to 4 µg/mL (≈ 3.44 to 6.88 µM)

NCC[C@H](O)C(=O)N[C@@H]1C[C@H](N)[C@@H](O[C@H]2O[C@H](CN)[C@@H](O)[C@H](O)[C@H]2O)[C@H](O)[C@H]1O[C@H]1O[C@H](CO)[C@@H](O)[C@H](N)[C@H]1O [Amikacin]
MIC [3, 10]: 8 to 32 µg/mL (≈ 13.7 to 54.6 µM)
MIC [3, 11]: 4 to 8 µg/mL (≈ 6.83 to 13.7 µM)
MIC (S. aureus C0032 [4]; [12]): 16 to 32 µg/mL (≈ 27.3 to 54.6 µM)

C[C@@H](O)[C@H]1C(=O)N2C(C(=O)O)=C(S[C@@H]3CN[C@H](C(=O)N(C)C)C3)[C@H](C)[C@H]12 [Meropenem]
MIC [3, 10]: 0.5 to 1 µg/mL (≈ 1.3 to 2.61 µM)
MIC [3, 11]: 0.063 to 0.125 µg/mL (≈ 0.164 to 0.326 µM)
MIC (S. aureus C0032 [4]; [12]): > 4 µg/mL

C[C@@H](O)[C@H]1C(=O)N2C(C(=O)O)=C(S[C@@H]3CN[C@H](CNS(N)(=O)=O)C3)[C@H](C)[C@H]12 [Doripenem]
MIC [3, 10]: 0.5 to 1 µg/mL (≈ 1.19 to 2.38 µM)
MIC [3, 11]: 0.25 µg/mL (≈ 0.595 µM)
MIC (S. aureus C0032 [4]; [12]): > 4 µg/mL

C[C@@H](O)[C@H]1C(=O)N2C(C(=O)O)=C(S[C@@H]3CN[C@H](C(=O)Nc4cccc(C(=O)O)c4)C3)[C@H](C)[C@H]12 [Ertapenem]
MIC [3, 10]: > 2 µg/mL
MIC [3, 11]: 8 to 16 µg/mL (≈ 16.8 to 33.6 µM)
MIC (S. aureus C0032 [4]; [12]): 4 µg/mL (≈ 8.41 µM)

kanamycin A [reference compound]
MIC ([3]; P. aeruginosa 1676, aph(3')-IIb): 128 µg/mL
MIC ([3]; P. aeruginosa 1761, aph(3')-IIb): 128 µg/mL
MIC ([3]; P. aeruginosa 1766, aph(3')-IIb): 128 µg/mL
MIC ([3]; P. aeruginosa 1781, aph(3')-IIb): 512 µg/mL
MIC ([3]; P. aeruginosa 1869, aph(3')-IIb aac(6')-Ib3): 1024 µg/mL
MIC ([3]; P. aeruginosa C0214, aph(3')-IIb): 256 to 512 µg/mL
MIC ([3]; P. aeruginosa C0307, aph(3')-IIb): 64 to 128 µg/mL
MIC ([3]; P. aeruginosa C0307, aph(3')-IIb, listed as Kanamycin A): 64 to 128 µg/mL
MIC (S. aureus C0032 [4]): 4096 µg/mL
MIC of kanamycin A (P. aeruginosa C0307; 0 µg mL^−1 imipenem): 64 µg/mL
MIC of kanamycin A (P. aeruginosa C0307; 0.05 µg mL^−1 imipenem): 64 µg/mL
checkerboard well reading (growth) (P. aeruginosa C0307; Supp. Figure 3 A, kanamycin A 2 µg.mL-1): 1.208
checkerboard well reading (growth) (P. aeruginosa C0307; Supp. Figure 3 A, kanamycin A 4 µg.mL-1): 1.193
checkerboard well reading (growth) (P. aeruginosa C0307; Supp. Figure 3 A, kanamycin A 8 µg.mL-1): 1.188
checkerboard well reading (growth) (P. aeruginosa C0307; Supp. Figure 3 A, kanamycin A 16 µg.mL-1): 1.223
checkerboard well reading (growth) (P. aeruginosa C0307; Supp. Figure 3 A, kanamycin A 32 µg.mL-1): 1.192
checkerboard well reading (growth) (P. aeruginosa C0307; Supp. Figure 3 A, kanamycin A 64 µg.mL-1): 0.162
checkerboard well reading (growth) (P. aeruginosa C0307; Supp. Figure 3 A, kanamycin A 128 µg.mL-1): 0.039
checkerboard well reading (growth) (P. aeruginosa C0307; Supp. Figure 3 B, kanamycin A 2 µg.mL-1): 1.210
checkerboard well reading (growth) (P. aeruginosa C0307; Supp. Figure 3 B, kanamycin A 4 µg.mL-1): 1.193
checkerboard well reading (growth) (P. aeruginosa C0307; Supp. Figure 3 B, kanamycin A 8 µg.mL-1): 1.143
checkerboard well reading (growth) (P. aeruginosa C0307; Supp. Figure 3 B, kanamycin A 16 µg.mL-1): 1.167
checkerboard well reading (growth) (P. aeruginosa C0307; Supp. Figure 3 B, kanamycin A 32 µg.mL-1): 1.151
checkerboard well reading (growth) (P. aeruginosa C0307; Supp. Figure 3 B, kanamycin A 64 µg.mL-1): 0.174
checkerboard well reading (growth) (P. aeruginosa C0307; Supp. Figure 3 B, kanamycin A 128 µg.mL-1): 0.043
MIC of kanamycin A (S. aureus C0032 [5]; 0.125 µg mL^−1 imipenem, [83] 0 µg mL^−1, 18 h at 37 °C): 4096 µg/mL
checkerboard well reading (growth) (S. aureus C0032 [5]; kanamycin A 2 µg.mL-1): 0.337
checkerboard well reading (growth) (S. aureus C0032 [5]; kanamycin A 4 µg.mL-1): 0.322
checkerboard well reading (growth) (S. aureus C0032 [5]; kanamycin A 8 µg.mL-1): 0.304
checkerboard well reading (growth) (S. aureus C0032 [5]; kanamycin A 16 µg.mL-1): 0.292
checkerboard well reading (growth) (S. aureus C0032 [5]; kanamycin A 32 µg.mL-1): 0.272
checkerboard well reading (growth) (S. aureus C0032 [5]; kanamycin A 64 µg.mL-1): 0.258
checkerboard well reading (growth) (S. aureus C0032 [5]; kanamycin A 128 µg.mL-1): 0.312

NCCNS(=O)(=O)c1ccc(Cl)c2ccncc12 [CKI-7]
Ki (APH(3’)-IIIa): 66 µM
Ki (APH(9)-Ia): 159 µM

CC(C)(C)n1nc(-c2cccc3ccccc23)c2c(N)ncnc21 [Compound 1-NA-PP1]
Ki (APH(3’)-Ia): 21.5 µM
Rescue activity of kanamycin A [6]: demonstrated rescue activity of kanamycin A

Nc1ccccn1 [Compound F68]
ΔTm at 500 µM (APH(2”)-IVa [7]): -0.27 °C
Inhibition (APH(2”)-IVa [1]): 11%
Ki (APH(2”)-IVa [8]): 260 µM

CNC(C)C1CCC(N)C(OC2C(N)CC(N)C(OC3OCC(C)(O)C(NC)C3O)C2O)O1 (centres unmarked) [Gentamicin]
MIC [3, 10]: 2 µg/mL (≈ 4.19 µM)
MIC [3, 11]: 2 µg/mL (≈ 4.19 µM)
MIC (S. aureus C0032 [4]; [12]): < 1 µg/mL

Clc1cnc2[nH]ccc2c1 [Compound 2, 5-chloro-7-azaindole]
Inhibition relative to F136 (APH(2”)-IVa [1]; 500 µM, times more inhibition than F136): 5.9 times
Ki (APH(2”)-IVa [8]): 9.63 µM

Nc1cc(-c2ccn[nH]2)ccn1 [Compound 68]
ΔTm at 500 µM (APH(2”)-IVa [7]): 1.29 °C
Ki (APH(2”)-IVa [8]): 81.9 µM

CC(C)(C)n1nc(Cc2cccc3ccccc23)c2c(N)ncnc21 [Compound 1-NM-PP1]
Ki (APH(3’)-Ia): 34.4 µM
Rescue activity of kanamycin A [6]: demonstrated rescue activity of kanamycin A

O=C(O)c1cc(NC2CC2)ncc1Cl [Compound 36]
ΔTm at 500 µM (APH(2”)-IVa [7]): 2.69 °C
Kd (APH(2”)-IVa [9]): 37.8 µM
kss (APH(2”)-IVa [1]; [36] = 20 µM, [MgATP] 0.1 mM): 0.130 s⁻¹
kss (APH(2”)-IVa [1]; [36] = 20 µM, [MgATP] 0.2 mM): 0.200 s⁻¹
kss (APH(2”)-IVa [1]; [36] = 20 µM, [MgATP] 0.3 mM): 0.240 s⁻¹
kss (APH(2”)-IVa [1]; [36] = 20 µM, [MgATP] 0.4 mM): 0.278 s⁻¹
kss (APH(2”)-IVa [1]; [36] = 50 µM, [MgATP] 0.1 mM): 0.097 s⁻¹
kss (APH(2”)-IVa [1]; [36] = 50 µM, [MgATP] 0.2 mM): 0.138 s⁻¹
kss (APH(2”)-IVa [1]; [36] = 50 µM, [MgATP] 0.3 mM): 0.175 s⁻¹
kss (APH(2”)-IVa [1]; [36] = 50 µM, [MgATP] 0.4 mM): 0.207 s⁻¹
kss (APH(2”)-IVa [1]; [36] = 100 µM, [MgATP] 0.1 mM): 0.067 s⁻¹
kss (APH(2”)-IVa [1]; [36] = 100 µM, [MgATP] 0.2 mM): 0.101 s⁻¹
kss (APH(2”)-IVa [1]; [36] = 100 µM, [MgATP] 0.3 mM): 0.133 s⁻¹
kss (APH(2”)-IVa [1]; [36] = 100 µM, [MgATP] 0.4 mM): 0.156 s⁻¹
Ki (APH(2”)-IVa [8]): 18.2 µM
